The values that follow come from ChEMBL document CHEMBL1201862, “PubChem BioAssay data set” (2004).

Each structure is given as a SMILES string.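 Following 48 hours of exposure in 96-well plates, responses at five concentrations were used to interpolate endpoints linearly. Here, GI50 denotes the concentration required for 50% inhibition of growth.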 Activity calls are given as the source filed them. Cut-off read from the data, not from the text of the source: active = GI50 up to about 1.1 µM and inactive = higher.

Some test systems named below: HOP-92; UACC-257; SNB-19; HCT-116; SK-MEL-28; UACC-62; HCT-15; SK-MEL-2; RXF 393; ACHN; SF-268; COLO 205; U-251; MDA-MB-435; EKVX; SW-620; OVCAR-3; PC-3; K562.
Holding throughout (experiment): NCI-60 cell line screen, 48 h

`Cc1ccc(C2NC(=O)c3ccccc3N2)c(C)c1` (configuration not stated): the GI50 is 9.53 µM (inactive) in the experiment on HOP-92; 6 µM (inactive) in the experiment with UACC-257; 3.96 µM (inactive) with SNB-19; 2.39 µM (inactive) with HCT-116; 6.58 µM (inactive) in the experiment with SK-MEL-28; 1.26 µM (inactive) in the experiment on UACC-62. The GI50 was 1.08 µM in the experiment with HCT-15; 1.77 µM (inactive) with SK-MEL-2; 3.91 µM (inactive) in the experiment on RXF 393; 6.82 µM (inactive) in the experiment with ACHN; 10.2 µM (inactive) with SF-268; 2.11 µM (inactive) with COLO 205. For the same compound, the GI50 was 2.59 µM (inactive) with U-251; 0.191 µM (active) in the experiment on MDA-MB-435; 8.17 µM (inactive) in the experiment with EKVX; 1.05 µM (active) with SW-620; 1.16 µM (inactive) in the experiment on OVCAR-3; 1.66 µM (inactive) in the experiment on PC-3. In addition, in the experiment on K562, the GI50 was 0.378 µM (active).
In the case of `C=C(C)[C@@H]1CCC2=C[C@H](C/C(C)=C\C3=CC(C)=C(O3)[C@H]1O)OC2=O`, the GI50 is 56.4 µM (inactive) with HOP-92; > 100 µM (inactive) in the experiment on UACC-257; > 100 µM (inactive) in the experiment on SNB-19; > 100 µM (inactive) in the experiment on SK-MEL-28; 93.5 µM (inactive) with UACC-62; above 100 µM in the experiment with HCT-15. The GI50 in the experiment with SK-MEL-2 was > 100 µM (inactive); with RXF 393, 35.6 µM (inactive); in the experiment on ACHN, 57.5 µM (inactive); with SF-268 it was > 100 µM (inactive); in the experiment with COLO 205, > 100 µM (inactive); in the experiment with U-251, 49.8 µM (inactive). Further, the GI50 with MDA-MB-435 was > 100 µM (inactive); in the experiment on EKVX, > 100 µM (inactive); in the experiment on SW-620 it was > 100 µM (inactive); with OVCAR-3, > 100 µM (inactive); in the experiment with PC-3, 73.8 µM (inactive); in the experiment with K562 it was > 100 µM (inactive).
With `c1c[nH]c(C23C4C5C6C4C2C6C53)n1` (configuration not stated), the GI50 in the experiment on HOP-92, in the experiment on UACC-257, with SNB-19, in the experiment on HCT-116, with SK-MEL-28 and in the experiment on UACC-62 was > 100 µM (inactive) in each case. Also, the GI50 in the experiment on HCT-15 was above 100 µM; in the experiment with SK-MEL-2, > 100 µM (inactive); with RXF 393, > 100 µM (inactive); in the experiment on ACHN, > 100 µM (inactive); with SF-268, > 100 µM (inactive); in the experiment with COLO 205 it was > 100 µM (inactive). Further, the GI50 in the experiment on U-251, with MDA-MB-435, in the experiment with EKVX, in the experiment with SW-620, in the experiment on OVCAR-3 and in the experiment with PC-3 was > 100 µM (inactive) in each case. In the experiment on K562, the GI50 was > 100 µM (inactive).
Regarding `O=C1C(Br)=CC2(C=C1Br)CCNC1=C2C(=O)c2[nH]cnc2C1=O`, the GI50 with HOP-92 is 12.3 µM (inactive); in the experiment on UACC-257 it was 14.6 µM (inactive); in the experiment on HCT-116, 14.7 µM (inactive); in the experiment on SK-MEL-28, 16.1 µM (inactive); with UACC-62, 11.9 µM (inactive); in the experiment with HCT-15, 15.6 µM. Also, the GI50 is 9.12 µM (inactive) with SK-MEL-2; 16.3 µM (inactive) in the experiment with RXF 393; 14.6 µM (inactive) in the experiment on ACHN; 14.8 µM (inactive) in the experiment with SF-268; 21.3 µM (inactive) in the experiment on COLO 205; 15 µM (inactive) in the experiment with U-251. Besides, the GI50 was 11 µM (inactive) with MDA-MB-435; 18.1 µM (inactive) in the experiment with EKVX; 17.7 µM (inactive) with SW-620; 15.7 µM (inactive) with OVCAR-3; 25.7 µM (inactive) in the experiment on PC-3; 12.4 µM (inactive) in the experiment with K562.
For `CCOc1ccc(NC(=O)C(=O)C(/C(=N/N)C(=O)OC)c2nc3ccc([N+](=O)[O-])cc3nc2O)cc1` (configuration not stated), the GI50 with HOP-92, in the experiment with UACC-257, in the experiment on SNB-19, in the experiment with HCT-116, with SK-MEL-28 and with UACC-62 was > 100 µM (inactive) in each case. In addition, the GI50 was above 100 µM in the experiment with HCT-15; > 100 µM (inactive) in the experiment on SK-MEL-2; 36.1 µM (inactive) in the experiment on RXF 393; > 100 µM (inactive) with ACHN; > 100 µM (inactive) in the experiment on SF-268; > 100 µM (inactive) with COLO 205. Further, the GI50 in the experiment on U-251, in the experiment with MDA-MB-435, with EKVX, in the experiment on SW-620, with OVCAR-3 and in the experiment with PC-3 was > 100 µM (inactive) throughout. In addition, the GI50 in the experiment on K562 was > 100 µM (inactive).
On to `Cc1cc2cc3cc(C)c(N)cc3nc2cc1N` [ACRIDINE YELLOW], for which the GI50 in the experiment on HOP-92 is 0.726 µM (active); in the experiment with UACC-257 it was 3.85 µM (inactive); in the experiment with SNB-19, 0.716 µM (active); with HCT-116 it was 0.208 µM (active); with SK-MEL-28 it was 1.51 µM (inactive); in the experiment with UACC-62 it was 0.942 µM (active). Besides, the GI50 in the experiment with HCT-15 was 0.597 µM; in the experiment with SK-MEL-2, 3.88 µM (inactive); with RXF 393, 1.15 µM (inactive); in the experiment on ACHN it was 0.365 µM (active); in the experiment with SF-268, 0.593 µM (active); in the experiment on COLO 205, 0.757 µM (active). For the same compound, the GI50 is 0.863 µM (active) with U-251; 4.4 µM (inactive) in the experiment on MDA-MB-435; 0.535 µM (active) in the experiment with EKVX; 0.321 µM (active) in the experiment on SW-620; 0.522 µM (active) with OVCAR-3; 1.06 µM (active) with PC-3. In addition, in the experiment with K562, the GI50 is 0.687 µM (active).
As to `OC(c1nc2ccccc2[nH]1)C(O)C(O)C(O)c1nc2ccccc2[nH]1` (configuration not stated), the GI50 in the experiment on HOP-92, with UACC-257, with SNB-19, with HCT-116, in the experiment on SK-MEL-28 and in the experiment on UACC-62 was > 100 µM (inactive) throughout. The GI50 with HCT-15 is above 100 µM; with SK-MEL-2, > 100 µM (inactive); in the experiment with RXF 393, > 100 µM (inactive); in the experiment with ACHN it was > 100 µM (inactive); in the experiment with SF-268, > 100 µM (inactive); in the experiment on COLO 205 it was > 100 µM (inactive). Moreover, the GI50 in the experiment on U-251, in the experiment with MDA-MB-435, in the experiment on EKVX, in the experiment on SW-620, in the experiment on OVCAR-3 and with PC-3 was > 100 µM (inactive) each time. Moreover, in the experiment with K562, the GI50 was > 100 µM (inactive).
Turning to `CCOC(=O)CNC(=O)C(CSC(=O)N(O)c1ccc(Br)cc1)NC(=O)CCC(N)C(=O)OCC` (configuration not stated), the GI50 in the experiment with HOP-92 is 8.45 µM (inactive); in the experiment with UACC-257, > 50 µM (inactive); with SNB-19, > 50 µM (inactive); in the experiment with HCT-116, > 50 µM (inactive); with SK-MEL-28, > 50 µM (inactive); with UACC-62 it was > 50 µM (inactive). Also, the GI50 with HCT-15 is above 50 µM; in the experiment with SK-MEL-2, > 50 µM (inactive); in the experiment on RXF 393, > 50 µM (inactive); in the experiment with ACHN it was > 50 µM (inactive); in the experiment on SF-268, > 50 µM (inactive); with COLO 205 it was > 50 µM (inactive). Further, the GI50 is > 50 µM (inactive) in the experiment on U-251; 24.4 µM (inactive) in the experiment on MDA-MB-435; > 50 µM (inactive) in the experiment with EKVX; 45.1 µM (inactive) in the experiment with SW-620; > 50 µM (inactive) in the experiment on OVCAR-3; > 50 µM (inactive) in the experiment on PC-3. Besides, in the experiment with K562, the GI50 was 41.9 µM (inactive).
With `CC1CCc2c(c(CC3CC(=O)NC(=O)C3)nn2-c2ccccc2)C1` (configuration not stated), the GI50 is > 100 µM (inactive) in the experiment on HOP-92; > 100 µM (inactive) with UACC-257; > 100 µM (inactive) in the experiment on SNB-19; > 100 µM (inactive) with HCT-116; > 100 µM (inactive) with SK-MEL-28; 76.2 µM (inactive) in the experiment on UACC-62. Also, the GI50 in the experiment with HCT-15 is above 100 µM; with SK-MEL-2 it was > 100 µM (inactive); in the experiment with RXF 393 it was > 100 µM (inactive); with ACHN, > 100 µM (inactive); in the experiment on SF-268, > 100 µM (inactive); in the experiment on COLO 205, > 100 µM (inactive). The GI50 with U-251, in the experiment on MDA-MB-435, in the experiment on EKVX, with SW-620, in the experiment on OVCAR-3 and in the experiment with PC-3 was > 100 µM (inactive) in each case. Also, the GI50 in the experiment on K562 is > 100 µM (inactive).
As for `Cc1ccc(C)c(COCCOCn2ccc(N)nc2=O)c1`, the GI50 in the experiment on HOP-92, in the experiment with UACC-257, with SNB-19, in the experiment on HCT-116, in the experiment on SK-MEL-28 and in the experiment with UACC-62 was > 100 µM (inactive) each time. In addition, the GI50 in the experiment with HCT-15 is above 100 µM; in the experiment on SK-MEL-2, > 100 µM (inactive); with RXF 393 it was > 100 µM (inactive); with ACHN it was > 100 µM (inactive); in the experiment with SF-268, > 100 µM (inactive); with COLO 205, > 100 µM (inactive). For the same compound, the GI50 with U-251, in the experiment on MDA-MB-435, in the experiment on EKVX, with SW-620, in the experiment on OVCAR-3 and in the experiment with PC-3 was > 100 µM (inactive) throughout. Besides, the GI50 in the experiment with K562 is > 100 µM (inactive).
Consider `CCC(O)CC1OC2(CCC1C)CC1OC(=O)/C=C\C(C)(O)C(O)C(C)C(O)C(OC3CC(OC)C(O)C(C)O3)C(O)C(C)(O)CCC/C=C/C3CC(C)COC3(O)CC(O2)C1C` (configuration not stated), for which the GI50 with HOP-92 is 25.6 µM (inactive); in the experiment on UACC-257, < 0.01 µM (active); in the experiment on SNB-19, 0.0743 µM (active); in the experiment on HCT-116 it was 5.08 µM (inactive); in the experiment with SK-MEL-28, 13.8 µM (inactive); in the experiment with UACC-62 it was 9.04 µM (inactive). Also, the GI50 with HCT-15 is 9.62 µM; in the experiment with SK-MEL-2, 4.98 µM (inactive); in the experiment on RXF 393, 26.2 µM (inactive); with ACHN it was 7.24 µM (inactive); in the experiment with SF-268 it was 17.8 µM (inactive); with COLO 205, 0.237 µM (active). Also, the GI50 in the experiment with U-251 is < 0.01 µM (active); in the experiment on MDA-MB-435 it was 1.91 µM (inactive); in the experiment on EKVX, < 0.01 µM (active); with SW-620, 14.8 µM (inactive); in the experiment on OVCAR-3, 0.585 µM (active); in the experiment with PC-3, < 0.0251 µM (active). Moreover, the GI50 with K562 is < 0.01 µM (active).
